Results published in ChEMBL document CHEMBL1201862, “PubChem BioAssay data set” (2004).
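The compound was tested at five concentrations on cells cultured in 96-well plates, with a 48-hour exposure period. GI50: concentration for 50% inhibition of growth.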 Activity calls are given as the source filed them. No stated cut-off is given here; in the data, active = GI50 up to about 1.1 µM and inactive = higher.

Key:
Assay in all cases: NCI-60 cell line screen, 48 h
LXFL 529 = test system: LXFL 529
DMS-114 = test system: DMS-114
DLD-1 = test system: DLD-1
XF498 = test system: XF498
DMS-273 = test system: DMS-273
SNB-78 = test system: SNB-78
HOP-18 = test system: HOP-18
KM-20L2 = test system: KM-20L2
RXF 631 = test system: RXF 631

Row | SMILES | GI50 (LXFL 529) | GI50 (DMS-114) | GI50 (DLD-1) | GI50 (XF498) | GI50 (DMS-273) | GI50 (SNB-78) | GI50 (HOP-18) | GI50 (KM-20L2) | GI50 (RXF 631)
1 | N/C(=N\O)N/N=C/c1ccc(C(F)(F)F)cc1 | 10.9 µM (inactive) | 18.4 µM (inactive) | 24.7 µM (inactive) | 13.8 µM (inactive) | 16.6 µM (inactive) | 39.4 µM (inactive) | – | – | –
2 | CC(C)CCCCCCCCCCCCC(=O)NCC(=O)NC1C(O)C(O)C(Nc2[nH]cnc3ncnc2-3)OC1C(O)CO (configuration not stated) | – | 0.000416 µM (active) | 0.0205 µM (active) | – | 0.000133 µM (active) | 0.000148 µM (active) | 0.000164 µM (active) | 0.000166 µM (active) | –
3 | NC1=C(Br)C(=O)c2ncccc2C1=O | 0.321 µM (active) | 0.16 µM (active) | 0.607 µM (active) | 0.998 µM (active) | 0.352 µM (active) | 0.828 µM (active) | – | 1.86 µM (inactive) | 1.79 µM (inactive)
4 | C[N+](C)(C)Cc1c(CC#N)[nH]c2ccccc12 | > 100 µM (inactive) | > 100 µM (inactive) | > 100 µM (inactive) | > 100 µM (inactive) | > 100 µM (inactive) | – | – | > 100 µM (inactive) | –
5 | COC1OC(CO)C(O)C(O)C1Br (configuration not stated) | > 100 µM (inactive) | – | > 100 µM (inactive) | > 100 µM (inactive) | > 100 µM (inactive) | > 100 µM (inactive) | > 100 µM (inactive) | > 100 µM (inactive) | > 100 µM (inactive)
6 | NC(=O)CCC(NC(=O)Cc1ccccc1)C(=O)O.NC(CCC(=O)NC(=O)Cc1ccccc1)C(=O)O (configuration not stated) | > 8130 µM (inactive) | > 8130 µM (inactive) | > 8130 µM (inactive) | – | – | – | > 8130 µM (inactive) | > 8130 µM (inactive) | –
7 | Cn1c(C2CC(C)(C)c3c2c2ccccc2n3C)cc2ccccc21 (configuration not stated) | > 304 µM (inactive) | 138 µM (inactive) | > 304 µM (inactive) | 115 µM (inactive) | > 304 µM (inactive) | – | – | > 304 µM (inactive) | –
8 | CN(C)CCNC(=O)C1COc2cc(-c3cc(=O)c4ccccc4o3)ccc2O1 (configuration not stated) | – | – | 27.3 µM (inactive) | – | 18.5 µM (inactive) | 24.7 µM (inactive) | 24.4 µM (inactive) | 22 µM (inactive) | –
9 | O=Cc1cn(S(=O)(=O)c2ccccc2)c2ccccc12 | 36.4 µM (inactive) | 24.8 µM (inactive) | 27.2 µM (inactive) | 46 µM (inactive) | – | 41.3 µM (inactive) | 32.4 µM (inactive) | > 100 µM (inactive) | 53.7 µM (inactive)
10 | COc1ccc2c3c([nH]c2c1[N+](=O)[O-])C(C)N(Cc1ccccc1)CC3 (configuration not stated) | 5.07 µM (inactive) | 3.39 µM (inactive) | > 100 µM (inactive) | – | 1.04 µM (active) | 3.59 µM (inactive) | – | 3.78 µM (inactive) | –
11 | COc1ccc(/C(Cl)=C(\C=N/O)c2ccc(OC)c(OC)c2)cc1OC | > 100 µM (inactive) | 30.8 µM (inactive) | > 100 µM (inactive) | > 100 µM (inactive) | > 100 µM (inactive) | 75.5 µM (inactive) | > 100 µM (inactive) | > 100 µM (inactive) | –
12 | Nc1nc(SCCNC(=O)CCc2ccc(O)cc2)nc2c1ncn2C1OC(CO)C(O)C1O (configuration not stated) | – | > 203 µM (inactive) | > 203 µM (inactive) | > 203 µM (inactive) | > 203 µM (inactive) | > 203 µM (inactive) | > 203 µM (inactive) | > 203 µM (inactive) | –
13 | O=C(c1ccccc1)c1nc2c(Cl)ccc(Cl)c2cc1C(Br)Br | 0.39 µM (active) | 2.04 µM (inactive) | 0.444 µM (active) | 1.07 µM (active) | 1.32 µM (inactive) | 2.06 µM (inactive) | 1.66 µM (inactive) | 1.04 µM (active) | 1.78 µM (inactive)
14 | Cc1ccc(C)c2c1CCc1cc3ccccc3nc1-2 | > 100 µM (inactive) | > 100 µM (inactive) | > 100 µM (inactive) | > 100 µM (inactive) | – | > 100 µM (inactive) | 2.65 µM (inactive) | > 100 µM (inactive) | –
15 | O=C1C2=C(c3ccccc31)C(c1ccc(F)cc1)N1C(=O)CCSC1=N2 (configuration not stated) | 45.4 µM (inactive) | 71.6 µM (inactive) | > 100 µM (inactive) | > 100 µM (inactive) | > 100 µM (inactive) | – | – | > 100 µM (inactive) | –
16 | COc1c(C)cc2c(c1O)C1NC(C2)[C@H](O)N2C3COC(=O)[C@@]4(CS[C@@H](c5c(OC(C)=O)c(C)c6c(c53)OCO6)C12)NCCC1=C4NC2C=CC=CC12 (some centres not stated) | < 0.01 µM (active) | < 0.01 µM (active) | < 0.01 µM (active) | < 0.01 µM (active) | < 0.01 µM (active) | – | – | < 0.01 µM (active) | < 0.01 µM (active)
17 | Cc1ccc(S(=O)(=O)N2CCC2c2ccccc2)cc1 (configuration not stated) | – | 48.1 µM (inactive) | – | 74 µM (inactive) | 91 µM (inactive) | > 100 µM (inactive) | 80 µM (inactive) | > 100 µM (inactive) | –
18 | CC[P+](C)(Cc1ccccc1)c1ccccc1.O=C(OC(C(=O)[O-])C(OC(=O)c1ccccc1)C(=O)O)c1ccccc1 (configuration not stated) | – | – | > 100 µM (inactive) | > 100 µM (inactive) | > 100 µM (inactive) | > 100 µM (inactive) | 5.47 µM (inactive) | > 100 µM (inactive) | –
19 | COC1/C=C\C=C(/C)C(=O)NC2=CC(=O)C(N)=C(CC(C)CC(OC)C(O)C(C)C=C(C)C1OC(N)=O)C2=O (configuration not stated) | 0.0462 µM (active) | – | 0.0689 µM (active) | 0.0565 µM (active) | – | 3.55 µM (inactive) | < 0.01 µM (active) | < 0.01 µM (active) | 0.303 µM (active)
20 | Cc1ccc(C)c(NC(=O)C(=O)C(C2C(C)CC(=O)C2CC(=O)O)[N+](=O)[O-])c1 (configuration not stated) | > 100 µM (inactive) | > 100 µM (inactive) | > 100 µM (inactive) | > 100 µM (inactive) | – | > 100 µM (inactive) | – | > 100 µM (inactive) | > 100 µM (inactive)
21 | O=c1c2ccccc2c2c3c1cccc3c1cccc3c(=O)c4ccccc4c2c31 | > 100 µM (inactive) | > 100 µM (inactive) | > 100 µM (inactive) | – | > 100 µM (inactive) | > 100 µM (inactive) | > 100 µM (inactive) | > 100 µM (inactive) | > 100 µM (inactive)
22 | CC/C=C1\N=C(c2ccc(Cl)cc2)OC1=O | > 100 µM (inactive) | > 100 µM (inactive) | > 100 µM (inactive) | > 100 µM (inactive) | > 100 µM (inactive) | > 100 µM (inactive) | – | > 100 µM (inactive) | –
23 | O=C(/C=C/c1c(O)ccc2ccccc12)c1ccc([N+](=O)[O-])cc1 | 16.6 µM (inactive) | 21.3 µM (inactive) | 18.7 µM (inactive) | 27.5 µM (inactive) | > 78.7 µM (inactive) | 21.6 µM (inactive) | 15.2 µM (inactive) | > 100 µM (inactive) | –
24 | COc1cc2ccnc(C#N)c2cc1OCc1ccccc1 | > 100 µM (inactive) | – | > 100 µM (inactive) | 53.6 µM (inactive) | – | > 100 µM (inactive) | > 100 µM (inactive) | > 100 µM (inactive) | –
25 | COc1ccc(C2=NC(C)(C)CO2)cc1 | – | > 100 µM (inactive) | > 100 µM (inactive) | > 100 µM (inactive) | > 100 µM (inactive) | > 100 µM (inactive) | > 100 µM (inactive) | > 100 µM (inactive) | –
26 | CC1CC2CC(=O)CC3(C1)C2CCCN3CCCO (configuration not stated) | > 100 µM (inactive) | > 100 µM (inactive) | > 100 µM (inactive) | > 100 µM (inactive) | > 100 µM (inactive) | > 100 µM (inactive) | > 100 µM (inactive) | – | > 100 µM (inactive)
27 | Nc1ccc(S(=O)(=O)Nc2ccc(Nc3c4ccccc4nc4ccccc34)cc2)cc1 | 3.91 µM (inactive) | < 0.0102 µM (active) | 1.06 µM (active) | 3.61 µM (inactive) | < 0.01 µM (active) | 3.78 µM (inactive) | 0.43 µM (active) | 0.215 µM (active) | 0.284 µM (active)
